The source of these data is patent publication US11220524B2, “Selective inhibitors of protein arginine methyltransferase 5 (PRMT5)” (PRELUDE THERAPEUTICS, INCORPORATED, priority 2017, dated 2022).

For assay [1], the target named is PRMT5/MEP50 complex (Homo sapiens (Human), UniProt O14744). Briefly: Biochemical assay: PRMT5/MEP50 methylation of histone H2A with 3H-SAM, filter plate scintillation. A digest of the protocol:
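5 nM PRMT5/MEP50 preincubated with compound 15–20 min at room temperature, with 5 μM histone H2A as substrate; reaction started with 1 μM 3H-SAM and run 60 min at 30 °C. TCA-stopped, filter-captured methylation counted by scintillation; IC50 from 4-parameter Hill fit.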

Assay [2] relates to Symmetric Di-Methyl Arginine (sDMA) in Granta-519 cells. Briefly: Western blot for symmetric di-methyl arginine (sDMA) marks in Granta cells, 3 days treatment. Format: cell-based. To be noted: Homo sapiens, 3 days. As for the experimental part:
Cell Treatment and Western Blotting for Detecting Symmetric Di-Methyl Arginine (sDMA) and Histone H3R8 Dimethyl Symmetric (H3R8me2s) Marks
Initial compounds screening in A549 cells: Compounds were dissolved in DMSO to make 10 mM stock and further diluted to 0.1, and 1 mM. A549 cells were maintained in PRMI 1640 (Corning Cellgro, Catalog #: 10-040-CV) medium supplemented with 10% v/v FBS (GE Healthcare, Catalog #: SH30910.03). One day before experiment, 1.25×10^5 cells were seeded in 6 well plate in 3 mL medium and incubated overnight. The next day, medium was changed and 3 uL of compound solution was added (1:1,000 dilution, 0.1 and 1 uM final concentration; DMSO concentration: 0.1%), and incubated for 3 days. Cells incubated with DMSO was used as a vehicle control. Cells were washed once with PBS, trypsinized in 150 uL 0.25% Trypsin (Corning, Catalog #: 25-053-CI), neutralized with 1 mL complete medium, transferred to microcentrifuge tubes and collected. Cell pellet was then resuspended in 15 uL PBS, lysed in 4% SDS, and homogenized by passing through homogenizer column (Omega Biotek, Catalog #: HCR003). Total protein concentrations were determined by BCA assay (ThermoFisher Scientific, Catalog #: 23225). Lysates were mixed with 5× Laemmli buffer and boiled for 5 min. Forty ug of total protein was separated on SDS-PAGE gels (Bio-Rad, catalog #: 4568083, 4568043), transferred to PVDF membrane, blocked with 5% dry milk (Bio-Rad, Catalog #: 1706404) in TBS with 0.1% v/v Tween 20 (TBST) for 1 hour at room temperature (RT), and incubated with primary antibodies (sDMA: Cell signaling, Catalog #: 13222, 1:3,000; H3R8me2s: Epigentek, Catalog #: A-3706-100, 1:2,000; β-Actin: Abcam, Catalog #: ab8227, 1:10,000) in 5% dry milk in TBST at 4° C. for overnight. The next day, membranes were washed with TBST, 5×5 min, and incubated withhP conjugated seconded antibody (GE Healthcare; Catalog #: NA934-1ML; 1:5,000) for 2 hours at RT, followed by 5×5 min washes with TBST, and incubation with ECL substrates (Bio-Rad, Catalog #: 1705061, 1705062). Chemiluminescent signal was captured with FluoChem HD2 imager (Proteinsimple) and analyzed by ImageJ.
Cells incubated with DMSO was used as a vehicle control. Cells were harvested and subjected to western blot analysis as described above. SmD3me2s and H3R8me2s bands were quantified by ImageJ. Signals were normalized to β-Actin and DMSO control. IC50 values were calculated using Graphpad Prism.
For orientation: Immunoblotting shows a protein as a band on a membrane.

Assay [3] relates to Granta-519 cells. Briefly: Cell proliferation assay on Granta-519 cells (CCK-8, day 10). In kind it is cell-based. The settings on record: Homo sapiens. As for the experimental part: Cell Proliferation Assay to Determine IC50 on Granta-519 Cells
Granta-519 cells were maintained in PRMI 1640 (Corning Cellgro, Catalog #: 10-040-CV) medium supplemented with 10% v/v FBS (GE Healthcare, Catalog #: SH30910.03). Compounds were dissolved in DMSO to make 10 mM stocks and stored at −20° C. Nine-point, 3-fold serial dilutions were made with DMSO with top concentration at 1 mM (working stocks).
On day of experiment, compound working stocks were further diluted at 1:50 with fresh medium in 96 well plate, and 10 μL of diluted drugs were added to a new 96 well plate for proliferation assay. Cells growing at exponential phase were spun down at 1500 rpm for 4 min and resuspend in fresh medium to reach a density of 0.5×10^6 cells/ml. 200 ul of cells were added to 96 well plate containing diluted drugs and incubated for 3 days. DMSO was used a vehicle control.
One day 3, 10 μL of Cell Counting Kit-8 (CCK-8, Jojindo, CK04-13) solution was added to a new 96 well plate. Cells incubated with drugs for 3 days were resuspended by pipetting up and down, and 100 μL of cells were transferred to 96 well plate containing CCK-8 reagent to measure viable cells. Plates were incubated in C02 incubator for 2 hours and OD450 values were measured with a microplate reader (iMark microplate reader, Bio-Rad).
For re-plating, compound working stocks were diluted at 1:50 with fresh medium and 10 μL of diluted drugs were added to anew 96 well plate. Cells from Day 3plate (50 ul) were added to 96 well plate containing fresh drug and additional 150 of fresh medium was added to reach 200 ul volume. Plate was returned to CO2incubator and incubated for 3more days. Viable cells measurement and re-plating were repeated on day 6, and the final viable cells measurement was taken on day 10.
Percentage of viable cells, relative to DMSO vehicle control, were calculated and plotted in Graphpad Prism ([Inhibitor] vs. normalized response-Variable slope) to determine proliferation IC50 values on day 10.

Where [4] appears, read: histone H2A 5 μM, SAM 1 μM, enzyme 5 nM, read-out: PRMT5/MEP50 IC50.
Where [5] appears, read: 240 h, Granta-519 cell line, read-out: Proliferation IC50.

Like-named read-outs stand apart in the source and are kept apart here.

Chain of PRMT5/MEP50 complex (O14744 whole entry): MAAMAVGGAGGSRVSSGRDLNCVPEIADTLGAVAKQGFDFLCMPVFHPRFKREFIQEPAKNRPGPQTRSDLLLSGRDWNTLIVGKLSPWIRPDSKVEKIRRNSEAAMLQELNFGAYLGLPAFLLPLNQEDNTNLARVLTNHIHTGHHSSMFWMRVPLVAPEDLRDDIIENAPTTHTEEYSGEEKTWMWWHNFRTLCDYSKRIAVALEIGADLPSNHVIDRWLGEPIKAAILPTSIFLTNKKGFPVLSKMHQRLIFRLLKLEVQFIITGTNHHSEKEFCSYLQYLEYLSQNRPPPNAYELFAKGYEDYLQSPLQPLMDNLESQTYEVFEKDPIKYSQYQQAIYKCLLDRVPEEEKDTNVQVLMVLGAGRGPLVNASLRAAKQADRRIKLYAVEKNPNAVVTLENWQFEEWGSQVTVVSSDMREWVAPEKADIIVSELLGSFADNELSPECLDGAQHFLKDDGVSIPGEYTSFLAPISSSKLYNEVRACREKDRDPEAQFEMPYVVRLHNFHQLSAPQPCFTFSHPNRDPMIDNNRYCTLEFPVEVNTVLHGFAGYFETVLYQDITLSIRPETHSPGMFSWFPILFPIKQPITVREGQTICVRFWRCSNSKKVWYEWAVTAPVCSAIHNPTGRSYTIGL
Chain of PRMT5/MEP50 complex (Q9BQA1 whole entry partner): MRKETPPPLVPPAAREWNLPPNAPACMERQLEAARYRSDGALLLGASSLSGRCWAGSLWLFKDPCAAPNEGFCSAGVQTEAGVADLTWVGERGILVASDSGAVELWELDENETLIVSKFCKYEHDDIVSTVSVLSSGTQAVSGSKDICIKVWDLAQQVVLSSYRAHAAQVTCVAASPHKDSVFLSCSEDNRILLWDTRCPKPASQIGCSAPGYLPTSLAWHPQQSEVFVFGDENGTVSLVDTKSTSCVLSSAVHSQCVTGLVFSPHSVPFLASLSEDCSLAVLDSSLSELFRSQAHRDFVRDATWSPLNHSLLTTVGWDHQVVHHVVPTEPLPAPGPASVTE

As for `CO/N=c1\nc[nH]c2c1ccn2[C@@H]1C[C@H](CCc2ccc3ccc(NCC4CC4)nc3c2)[C@@H](O)[C@H]1O` [Example 90-B, 7-((1R,2S,3R,4S)-4-(2-(2-((cyclopropylmethyl)amino)quinolin-7-yl)ethyl)-2,3-dihydroxycyclopentyl)-1,7-dihydro-4H-pyrrolo[2,3-d]pyrimidin-4-one O-methyl oxime], the IC50 is 0.82 nM in assay [1] (biochemical potency, read-out: PRTMT5/MEP50 IC50); 28 nM in assay [2] (Granta-519, 72 h, Granta cell line); 229 nM in assay [3] (Granta-519, 240 h, Granta cell line, read-out: Prolif. IC50).

For `CCO/N=c1/nc[nH]c2c1ccn2[C@@H]1O[C@H]([C@](C)(O)c2ccc(Cl)c(Cl)c2)[C@@H](O)[C@H]1O` [Example 99, 7-((2R,3R,4S,5S)-5-((R)-1-(3,4-dichlorophenyl)-1-hydroxyethyl)-3,4-dihydroxytetrahydrofuran-2-yl)-1,7-dihydro-4H-pyrrolo[2,3-d]pyrimidin-4-one O-ethyl oxime], the IC50 in assay [1] (setting [4]) came out at 2.4 nM; in assay [2] (72 h, Granta-519 cell line), 8.4 nM; in assay [3] (setting [5]), 94 nM.

For `O[C@@H]1[C@H](O)[C@@H]([C@H](O)c2ccc(Cl)c(Cl)c2)O[C@H]1n1ccc2/c(=N/OCC(F)(F)F)nc[nH]c21` [Example 103, 7-((2R,3R,4S,5R)-5-((R)-(3,4-dichlorophenyl)(hydroxy)methyl)-3,4-dihydroxytetrahydrofuran-2-yl)-1,4a,7,7a-tetrahydro-4H-pyrrolo[2,3-d]pyrimidin-4-one 0-(2,2,2-trifluoroethyl) oxime], the IC50 was 29.6 nM in assay [1] (setting [4]); 57.9 nM in assay [2] (72 h, Granta-519 cell line); 62 nM in assay [3] (setting [5]).

On to `O/N=c1/nc[nH]c2c1ccn2[C@@H]1O[C@H]([C@H](O)c2ccc(F)c(Cl)c2)[C@@H](O)[C@H]1O` [compound 65, 7-((2R,3R,4S,5R)-5-((R)-(3-chloro-4-fluorophenyl)(hydroxy)methyl)-3,4-dihydroxytetrahydrofuran-2-yl)-1,7-dihydro-4H-pyrrolo[2,3-d]pyrimidin-4-one oxime], for which the IC50 came to 1.9 nM in assay [1] (setting [4]) and 16 nM in assay [2] (72 h, Granta-519 cell line).

For the compound `O/N=c1\nc[nH]c2c1ccn2[C@@H]1O[C@H]([C@H](O)c2ccc(Cl)c(Cl)c2)[C@@H](O)[C@H]1O` [compound 66, 7-((2R,3R,4S,5R)-5-((R)-(3,4-dichlorophenyl)(hydroxy)methyl)-3,4-dihydroxytetrahydrofuran-2-yl)-1,7-dihydro-4H-pyrrolo[2,3-d]pyrimidin-4-one oxime], the IC50 was found to be 0.4 nM in assay [1] (setting [4]) and 1.8 nM in assay [2] (72 h, Granta-519 cell line).

On to `O/N=c1\nc[nH]c2c1ccn2[C@@H]1O[C@H]([C@H](O)c2ccc(F)c(F)c2)[C@@H](O)[C@H]1O` [compound 67, 7-((2R,3R,4S,5R)-5-((R)-(3,4-difluorophenyl)(hydroxy)methyl)-3,4-dihydroxytetrahydrofuran-2-yl)-1,7-dihydro-4H-pyrrolo[2,3-d]pyrimidin-4-one oxime], for which the IC50 is 0.6 nM in assay [1] (setting [4]) and 10 nM in assay [2] (72 h, Granta-519 cell line).

Take `CO/N=c1/nc[nH]c2c1ccn2[C@@H]1O[C@H]([C@H](O)c2ccc(F)c(Cl)c2)[C@@H](O)[C@H]1O` [compound 68, 7-((2R,3R,4S,5R)-5-((R)-(3-chloro-4-fluorophenyl)(hydroxy)methyl)-3,4-dihydroxytetrahydrofuran-2-yl)-1,7-dihydro-4H-pyrrolo[2,3-d]pyrimidin-4-one O-methyl oxime]: the IC50 in assay [1] (setting [4]) came out at 35 nM; in assay [2] (72 h, Granta-519 cell line) it was 90 nM.

`Cc1n/c(=N\O)c2ccn([C@@H]3O[C@H]([C@H](O)c4ccc(Cl)cc4)[C@@H](O)[C@H]3O)c2[nH]1` [compound 71, 7-((2R,3R,4S,5R)-5-((R)-(4-chlorophenyl)(hydroxy)methyl)-3,4-dihydroxytetrahydrofuran-2-yl)-2-methyl-1,7-dihydro-4H-pyrrolo[2,3-d]pyrimidin-4-one oxime]: the IC50 in assay [1] (setting [4]) stood at 13.9 nM; in assay [2] (72 h, Granta-519 cell line) it was 260 nM.

As for `O/N=c1/nc[nH]c2c1c(F)cn2[C@@H]1O[C@H]([C@H](O)c2ccc(Cl)cc2)[C@@H](O)[C@H]1O` [compound 72, 7-((2R,3R,4S,5R)-5-((R)-(4-chlorophenyl)(hydroxy)methyl)-3,4-dihydroxytetrahydrofuran-2-yl)-5-fluoro-1,7-dihydro-4H-pyrrolo[2,3-d]pyrimidin-4-one oxime], the IC50 in assay [1] (setting [4]) amounted to 2.8 nM; in assay [2] (72 h, Granta-519 cell line), 41 nM.

For the compound `N/N=c1/nc[nH]c2c1c(F)cn2[C@@H]1O[C@H]([C@H](O)c2ccc(Cl)cc2)[C@@H](O)[C@H]1O` [compound 73, (2R,3S,4R,5R)-2-((R)-(4-chlorophenyl)(hydroxy)methyl)-5-(5-fluoro-4-hydrazineylidene-1,4-dihydro-7H-pyrrolo[2,3-d]pyrimidin-7-yl)tetrahydrofuran-3,4-diol], the IC50 in assay [1] (setting [4]) is 9.7 nM; in assay [2] (72 h, Granta-519 cell line), 313 nM.

With `CO/N=c1/nc[nH]c2c1ccn2[C@@H]1O[C@H]([C@H](O)c2ccc(C(F)(F)F)c(F)c2)[C@@H](O)[C@H]1O` [compound 78, 7-((2R,3R,4S,5R)-5-((R)-(3-fluoro-4-(trifluoromethyl)phenyl)(hydroxy)methyl)-3,4-dihydroxytetrahydrofuran-2-yl)-1,7-dihydro-4H-pyrrolo[2,3-d]pyrimidin-4-one O-methyl oxime], the IC50 in assay [1] (setting [4]) amounted to 3.1 nM; in assay [2] (72 h, Granta-519 cell line), 33 nM.

Turning to `CO/N=c1/nc[nH]c2c1ccn2[C@@H]1O[C@H]([C@H](O)c2ccc(Cl)c(C)c2)[C@@H](O)[C@H]1O` [compound 80, 7-((2R,3R,4S,5R)-5-((R)-(4-chloro-3-methylphenyl)(hydroxy)methyl)-3,4-dihydroxytetrahydrofuran-2-yl)-1,7-dihydro-4H-pyrrolo[2,3-d]pyrimidin-4-one O-methyl oxime], the IC50 amounted to 0.7 nM in assay [1] (setting [4]) and 18 nM in assay [2] (72 h, Granta-519 cell line).

`CN/N=c1\nc[nH]c2c1ccn2[C@@H]1O[C@H]([C@H](O)c2ccc(Cl)c(Cl)c2)[C@@H](O)[C@H]1O` [compound 81, (2R,3S,4R,5R)-2-((R)-(3,4-dichlorophenyl)(hydroxy)methyl)-5-(4-(2-methylhydrazineylidene)-1,4-dihydro-7H-pyrrolo[2,3-d]pyrimidin-7-yl)tetrahydrofuran-3,4-diol]: the IC50 is 0.3 nM in assay [1] (setting [4]) and 9 nM in assay [2] (72 h, Granta-519 cell line).

With `CCO/N=c1/[nH]cnc2c1ccn2[C@@H]1O[C@H]([C@H](O)c2ccc(Cl)c(Cl)c2)[C@@H](O)[C@H]1O` [compound 82, 7-((2R,3R,4S,5R)-5-((R)-(3,4-dichlorophenyl)(hydroxy)methyl)-3,4-dihydroxytetrahydrofuran-2-yl)-3,7-dihydro-4H-pyrrolo[2,3-d]pyrimidin-4-one O-ethyl oxime], the IC50 in assay [1] (setting [4]) worked out at 3.9 nM; in assay [2] (72 h, Granta-519 cell line) it was 11 nM.
